Measurements: patent US20250145665A1, “MACROCYCLIC PEPTIDES USEFUL AS MODULATORS OF TNF ALPHA” (Bristol-Myers Squibb Company, priority 2023, published 2025)
Starred links: 1 amine or outer side, 2 acyl side, 3 side chain; linkers in the order of their positions; H or OH if unused. Positions of bridges follow the written chain, without caps; N, C: chain ends. Non-standard residues stand in square brackets, D forms with d. Residues, ends and D or L forms follow the SMILES beside them. ξ: configuration not given here. *: point of attachment. X34 = Cc1cc(C(=O)O)cc(C(=O)Nc2ccc(-c3ccc(C[C@H](N[*:1])C(=O)[*:2])cc3)cc2)c1; Bip(4'-NH) = O=C([C@H](Cc1ccc(-c2ccc(N[*:3])cc2)cc1)N[*:1])[*:2]; Indazole3carbonyl(1-CH2COOH) = O=C(O)Cn1nc(C(=O)*)c2ccccc21; Bip(4'-COOH) = N[C@@H](Cc1ccc(-c2ccc(C(=O)O)cc2)cc1)C(=O)O; Bip(4'-NHAc) = CC(=O)Nc1ccc(-c2ccc(C[C@H](N)C(=O)O)cc2)cc1; X25 = N=C(N)Nc1cccc(CNC(=N)NCCC[C@@H](N[*:1])C(=O)[*:2])c1; Ala(morpholin-4-yl) = N[C@@H](CN1CCOCC1)C(=O)O; X12 = N=C(NCCO)NCCC[C@@H](N[*:1])C(=O)[*:2]; Asp(3,3-Me2) = CC(C)(C(=O)O)[C@H](N)C(=O)O; Bip = N[C@@H](Cc1ccc(-c2ccccc2)cc1)C(=O)O; Ala(2-furyl) = N[C@@H](Cc1ccco1)C(=O)O; Val(3-OH) = CC(C)(O)[C@H](N)C(=O)O; 2Pal = N[C@@H](Cc1ccccn1)C(=O)O; 3Pal = N[C@@H](Cc1cccnc1)C(=O)O; Cha = N[C@@H](CC1CCCCC1)C(=O)O; Chg = N[C@H](C(=O)O)C1CCCCC1; ξIle = CC[C@H](C)C(N)C(=O)O; Aze = O=C(O)[C@@H]1CCN1; Sar = CNCC(=O)O

target: TNFα (Homo sapiens, UniProt P01375); assay: TNF-Induced HEK-Blue Assay; type: cell-based; conditions: not given
Sequence (P01375 77-233 limits assumed): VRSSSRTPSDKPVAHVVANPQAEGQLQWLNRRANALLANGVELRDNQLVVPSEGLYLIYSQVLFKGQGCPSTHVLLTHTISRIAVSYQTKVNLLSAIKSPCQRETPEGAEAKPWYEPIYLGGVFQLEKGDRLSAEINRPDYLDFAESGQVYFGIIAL

Compound	IC50
CC(C)C[C@@H]1NC(=O)[C@H](CCCNC(=N)N)NC(=O)[C@H](C(C)C)NC(=O)[C@@H]2CCCN2C(=O)[C@H](C(C)C)NC(=O)[C@@H](CCCNC(=N)NCc2cccc(NC(=N)N)c2)NC(=O)[C@H](CC(=O)O)NC(=O)[C@@H]2CCCN2C(=O)CN(C)C(=O)[C@H](Cc2ccc(-c3ccc(NC(=O)c4nn(CC(=O)O)c5ccccc45)cc3)cc2)NC(=O)[C@H](Cc2ccc(-c3ccccc3)cc2)NC(=O)[C@H](CN2CCOCC2)NC(=O)CSC[C@@H](C(=O)NCC(N)=O)NC1=O [Example 435] ({CH2CO}-[Ala(morpholin-4-yl)][Bip][Bip(4'-NH)](Indazole3carbonyl(1-CH2COOH))[Sar]PD[X25]VPVRLCG-NH2; thioether N-13)	< 50 nM
CC(C)C[C@@H]1NC(=O)[C@H](CCCNC(=N)N)NC(=O)[C@H](C(C)C)NC(=O)[C@@H]2CCCN2C(=O)[C@H](C(C)C)NC(=O)[C@@H](CCCNC(=N)NCCO)NC(=O)[C@H](CC(=O)O)NC(=O)[C@@H]2CCCN2C(=O)CN(C)C(=O)[C@H](Cc2ccc(-c3ccc(NC(=O)c4nn(CC(=O)O)c5ccccc45)cc3)cc2)NC(=O)[C@H](Cc2ccc(-c3ccccc3)cc2)NC(=O)[C@H](CN2CCOCC2)NC(=O)CSC[C@@H](C(=O)NCC(N)=O)NC1=O [Example 387] ({CH2CO}-[Ala(morpholin-4-yl)][Bip][Bip(4'-NH)](Indazole3carbonyl(1-CH2COOH))[Sar]PD[X12]VPVRLCG-NH2; thioether N-13)	< 50 nM

same assay, conditions: HEK-Blue-CD40L cells, NF-kB-driven secreted alkaline phosphatase reporter; TNFα 0.5 ng/ml; 18 h; read-out: TNF induced HEK-Blue assay IC50 value

IC50	Compound
50 to 200 nM	CC(=O)Nc1ccc(-c2ccc(C[C@@H]3NC(=O)[C@H](Cc4ccc(-c5ccc(C(=O)O)cc5)cc4)NC(=O)[C@H](CN4CCOCC4)NC(=O)CSC[C@@H](C(=O)NCC(N)=O)NC(=O)[C@H](CC(C)C)NC(=O)[C@H](Cc4ccccn4)NC(=O)[C@H](C(C)C)NC(=O)[C@@H]4CCN4C(=O)[C@H](C(C)C)NC(=O)[C@@H](CCCNC(=N)N)NC(=O)[C@H](CC(=O)O)NC(=O)[C@H](Cc4ccccn4)NC(=O)CN(C)C3=O)cc2)cc1 [Example 190] ({CH2CO}-[Ala(morpholin-4-yl)][Bip(4'-COOH)][Bip(4'-NHAc)][Sar][2Pal]D[dR]V[Aze]V[2Pal]LCG-NH2; thioether N-13)
50 to 200 nM	CC(C)C[C@@H]1NC(=O)[C@H](Cc2ccc(O)cc2)NC(=O)[C@H](C(C)C)NC(=O)[C@@H]2CCCN2C(=O)[C@H](C(C)C)NC(=O)[C@H](CCCNC(=N)N)NC(=O)[C@H](CC(=O)O)NC(=O)[C@@H]2CCCN2C(=O)CN(C)C(=O)[C@H](Cc2ccc(-c3ccccc3)cc2)NC(=O)[C@H](Cc2ccc(-c3ccccc3)cc2)NC(=O)[C@H](CN2CCOCC2)NC(=O)CSC[C@@H](C(=O)NCC(N)=O)NC1=O [Example 49] ({CH2CO}-[Ala(morpholin-4-yl)][Bip][Bip][Sar]PDRVPVYLCG-NH2; thioether N-13)
< 50 nM	CC(=O)Nc1ccc(-c2ccc(C[C@@H]3NC(=O)[C@H](Cc4ccc(-c5ccccc5)cc4)NC(=O)[C@H](CN4CCOCC4)NC(=O)CSC[C@@H](C(=O)NCC(N)=O)NC(=O)[C@H](CC(C)C)NC(=O)[C@H](Cc4ccc(O)cc4)NC(=O)[C@H](C(C)C)NC(=O)[C@@H]4CCN4C(=O)[C@H](C(C)C)NC(=O)[C@@H](CCCNC(=N)N)NC(=O)[C@H](CC(=O)O)NC(=O)[C@H](Cc4ccccc4)NC(=O)CN(C)C3=O)cc2)cc1 [Example 221] ({CH2CO}-[Ala(morpholin-4-yl)][Bip][Bip(4'-NHAc)][Sar]FD[dR]V[Aze]VYLCG-NH2; thioether N-13)
< 50 nM	CC[C@H](C)C1NC(=O)[C@@H]2CCCN2C(=O)[C@H]([C@@H](C)CC)NC(=O)[C@@H](CCCNC(=N)N)NC(=O)[C@H](CC(=O)O)NC(=O)[C@H](Cc2ccccn2)NC(=O)CN(C)C(=O)[C@H](Cc2ccc(-c3ccc(NC(C)=O)cc3)cc2)NC(=O)[C@H](Cc2ccc(-c3ccc(C(=O)O)cc3)cc2)NC(=O)[C@H](CC2CCCCC2)NC(=O)CSC[C@@H](C(=O)NCC(N)=O)NC(=O)[C@H](CC(C)C)NC(=O)[C@H](CCCNC(=N)N)NC1=O (stereo partly shown) [Example 291] ({CH2CO}-[Cha][Bip(4'-COOH)][Bip(4'-NHAc)][Sar][2Pal]D[dR]IP[ξIle]RLCG-NH2; thioether N-13)
200 to 2000 nM	CC(=O)Nc1ccc(-c2ccc(C[C@@H]3NC(=O)[C@H](Cc4ccc(-c5ccc(C(=O)O)cc5)cc4)NC(=O)[C@H](CN4CCOCC4)NC(=O)CSC[C@@H](C(=O)NCC(N)=O)NC(=O)[C@H](CC(C)C)NC(=O)[C@H](Cc4ccc(O)cc4)NC(=O)[C@H](C(C)C)NC(=O)[C@@H]4CCCN4C(=O)[C@H](C(C)C)NC(=O)[C@@H](CCCNC(=N)N)NC(=O)[C@H](CC(=O)O)NC(=O)[C@@H]4CCCN4C(=O)CN(C)C3=O)cc2)cc1 [Example 236] ({CH2CO}-[Ala(morpholin-4-yl)][Bip(4'-COOH)][Bip(4'-NHAc)][Sar]PD[dR]VPVYLCG-NH2; thioether N-13)
200 to 2000 nM	CC(C)C[C@@H]1NC(=O)[C@H](CCCNC(=N)N)NC(=O)[C@H](C2CCCCC2)NC(=O)[C@@H]2CCCN2C(=O)[C@H](C(C)C)NC(=O)[C@H](CCCNC(=N)N)NC(=O)[C@H](CC(=O)O)NC(=O)[C@@H]2CCCN2C(=O)CN(C)C(=O)[C@H](Cc2ccc(-c3ccccc3)cc2)NC(=O)[C@H](Cc2ccc(-c3ccccc3)cc2)NC(=O)[C@H](CN2CCOCC2)NC(=O)CSC[C@@H](C(=O)NCC(N)=O)NC1=O [Example 207] ({CH2CO}-[Ala(morpholin-4-yl)][Bip][Bip][Sar]PDRVP[Chg]RLCG-NH2; thioether N-13)
< 50 nM	CC[C@H](C)[C@@H]1NC(=O)[C@@H](CCCNC(=N)N)NC(=O)[C@H](CC(=O)O)NC(=O)[C@H](Cc2cnc[nH]2)NC(=O)CN(C)C(=O)[C@H](Cc2ccc(-c3ccc(NC(=O)c4cc(C)cc(C(=O)O)c4)cc3)cc2)NC(=O)[C@H](Cc2ccc(-c3ccccc3)cc2)NC(=O)[C@H](CC2CCCCC2)NC(=O)CSC[C@@H](C(=O)NCC(N)=O)NC(=O)[C@H](CC(C)C)NC(=O)[C@H](Cc2cnc[nH]2)NC(=O)[C@H](C(C)C)NC(=O)[C@@H]2CCCN2C1=O [Example 443] ({CH2CO}-[Cha][Bip][X34][Sar]HD[dR]IPVHLCG-NH2; thioether N-13)

More lines, now with the values behind:

Compound	IC50
CC(C)C[C@@H]1NC(=O)[C@H](Cc2ccc(O)cc2)NC(=O)[C@H](C(C)C)NC(=O)CN(C)C(=O)[C@H](C(C)C)NC(=O)[C@H](CCCNC(=N)N)NC(=O)[C@H](CC(=O)O)NC(=O)[C@H](Cc2ccc(O)cc2)NC(=O)CN(C)C(=O)[C@H](Cc2ccc(-c3ccccc3)cc2)NC(=O)[C@H](Cc2ccc(-c3ccccc3)cc2)NC(=O)[C@H](C(C)(C)O)NC(=O)CSC[C@@H](C(=O)NCC(N)=O)NC1=O [Example 140] ({CH2CO}-[Val(3-OH)][Bip][Bip][Sar]YDRV[Sar]VYLCG-NH2; thioether N-13)	200 to 2000 nM
CC(=O)Nc1ccc(-c2ccc(C[C@@H]3NC(=O)[C@H](Cc4ccc(-c5ccc(C(=O)O)cc5)cc4)NC(=O)[C@H](CN4CCOCC4)NC(=O)CSC[C@@H](C(=O)NCC(N)=O)NC(=O)[C@H](CC(C)C)NC(=O)[C@H](CCCNC(=N)N)NC(=O)[C@H](C(C)C)NC(=O)[C@@H]4CCCN4C(=O)[C@H](CC(N)=O)NC(=O)[C@@H](CCCNC(=N)N)NC(=O)[C@H](CC(=O)O)NC(=O)[C@H](Cc4ccccn4)NC(=O)CN(C)C3=O)cc2)cc1 [Example 226] ({CH2CO}-[Ala(morpholin-4-yl)][Bip(4'-COOH)][Bip(4'-NHAc)][Sar][2Pal]D[dR]NPVRLCG-NH2; thioether N-13)	50 to 200 nM
CC(C)C[C@@H]1NC(=O)[C@H](CCCNC(=N)N)NC(=O)[C@H](C(C)C)NC(=O)[C@@H]2CCCN2C(=O)[C@H](Cc2cccnc2)NC(=O)[C@H](CCCNC(=N)N)NC(=O)[C@H](CC(=O)O)NC(=O)[C@@H]2CCCN2C(=O)CN(C)C(=O)[C@H](Cc2ccc(-c3ccccc3)cc2)NC(=O)[C@H](Cc2ccc(-c3ccccc3)cc2)NC(=O)[C@H](CN2CCOCC2)NC(=O)CSC[C@@H](C(=O)NCC(N)=O)NC1=O [Example 54] ({CH2CO}-[Ala(morpholin-4-yl)][Bip][Bip][Sar]PDR[3Pal]PVRLCG-NH2; thioether N-13)	50 to 200 nM
CC(=O)Nc1ccc(-c2ccc(C[C@@H]3NC(=O)[C@H](Cc4ccc(-c5ccccc5)cc4)NC(=O)[C@H](CC4CCCCC4)NC(=O)CSC[C@@H](C(=O)NCC(N)=O)NC(=O)[C@H](CC(C)C)NC(=O)[C@H](Cc4cnc[nH]4)NC(=O)[C@H](C(C)C)NC(=O)[C@@H]4CCCN4C(=O)[C@H](CC(N)=O)NC(=O)[C@@H](CCCNC(=N)N)NC(=O)[C@H](CC(=O)O)NC(=O)[C@@H]4CCCN4C(=O)CN(C)C3=O)cc2)cc1 [Example 253] ({CH2CO}-[Cha][Bip][Bip(4'-NHAc)][Sar]PD[dR]NPVHLCG-NH2; thioether N-13)	50 to 200 nM
CC(=O)Nc1ccc(-c2ccc(C[C@@H]3NC(=O)[C@H](Cc4ccc(-c5ccccc5)cc4)NC(=O)[C@H](CC4CCCCC4)NC(=O)CSC[C@@H](C(=O)NCC(N)=O)NC(=O)[C@H](CC(C)C)NC(=O)[C@H](Cc4ccco4)NC(=O)[C@H](C(C)C)NC(=O)[C@@H]4CCCN4C(=O)[C@H](C(C)C)NC(=O)[C@@H](CCCNC(=N)N)NC(=O)[C@H](CC(=O)O)NC(=O)[C@@H]4CCCN4C(=O)CN(C)C3=O)cc2)cc1 [Example 288] ({CH2CO}-[Cha][Bip][Bip(4'-NHAc)][Sar]PD[dR]VPV[Ala(2-furyl)]LCG-NH2; thioether N-13)	200 to 2000 nM
CC(C)C[C@@H]1NC(=O)[C@H](Cc2ccc(O)cc2)NC(=O)[C@H](C(C)C)NC(=O)[C@@H]2CCCN2C(=O)[C@H](C(C)C)NC(=O)[C@H](CCCNC(=N)N)NC(=O)[C@H](CC(=O)O)NC(=O)[C@@H]2CCCN2C(=O)CN(C)C(=O)[C@H](Cc2ccc(-c3ccccc3)cc2)NC(=O)[C@H](Cc2ccc(-c3ccccc3)cc2)NC(=O)[C@H](C(C)(C)O)NC(=O)CSC[C@@H](C(=O)NCC(N)=O)NC1=O [Example 64] ({CH2CO}-[Val(3-OH)][Bip][Bip][Sar]PDRVPVYLCG-NH2; thioether N-13)	200 to 2000 nM
CC(C)C[C@@H]1NC(=O)[C@H](Cc2ccc(O)cc2)NC(=O)[C@H](C(C)C)NC(=O)[C@@H]2CCCN2C(=O)[C@H](C(C)C)NC(=O)[C@H](CCCNC(=N)N)NC(=O)[C@H](C(C)(C)C(=O)O)NC(=O)[C@H](Cc2ccc(O)cc2)NC(=O)CN(C)C(=O)[C@H](Cc2ccc(-c3ccccc3)cc2)NC(=O)[C@H](Cc2ccc(-c3ccccc3)cc2)NC(=O)[C@H](CN2CCOCC2)NC(=O)CSC[C@@H](C(=O)NCC(N)=O)NC1=O [Example 100] ({CH2CO}-[Ala(morpholin-4-yl)][Bip][Bip][Sar]Y[Asp(3,3-Me2)]RVPVYLCG-NH2; thioether N-13)	200 to 2000 nM
